According to patent US5935932A, “Bradykinin antagonists containing pentafluorophenylalanine” (University Technology Corporation, priority 1998, dated 1999):
Like-named read-outs stand apart in the source and are kept apart here. Where a SMILES comes first, the peptide text is derived from it. [ ]: non-standard residue; d: D form. dPhe(F5) = N[C@H](Cc1c(F)c(F)c(F)c(F)c1F)C(=O)O; Oic = O=C(O)[C@@H]1C[C@@H]2CCCC[C@@H]2N1; Igl = N[C@H](C(=O)O)C1Cc2ccccc2C1; Hyp = O=C(O)[C@@H]1C[C@@H](O)CN1; NMeF = CN[C@@H](Cc1ccccc1)C(=O)O

How the values were obtained:
[1] = molecular target: T1, bradykinin receptors in Guinea Pig Ileum (Cavia porcellus, UniProt O70526); test: Guinea Pig Ileum functional assay; format: cell-based
T1 construct: describes the Guinea Pig Ileum assay used to analyze the present compounds; from tissue; host or cells: isolated guinea pig ileum
T1 sequence (O70526 1-372): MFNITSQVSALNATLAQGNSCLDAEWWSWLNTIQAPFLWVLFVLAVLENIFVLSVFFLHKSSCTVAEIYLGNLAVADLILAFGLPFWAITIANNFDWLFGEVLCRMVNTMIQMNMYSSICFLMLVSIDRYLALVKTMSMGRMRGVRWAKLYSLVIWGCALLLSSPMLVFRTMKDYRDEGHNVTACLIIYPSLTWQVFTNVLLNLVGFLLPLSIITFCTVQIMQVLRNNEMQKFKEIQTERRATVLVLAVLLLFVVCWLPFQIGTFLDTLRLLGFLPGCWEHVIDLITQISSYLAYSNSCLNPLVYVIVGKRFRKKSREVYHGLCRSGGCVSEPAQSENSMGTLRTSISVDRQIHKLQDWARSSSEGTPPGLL
Text: 5. Guinea Pig Ileum functional assay
Trautshold, Handbook of Expt. Pharmacol. Vol 25, Springer Verlag pp 53-55 (1970) describes the Guinea Pig Ileum assay used to analyze the present compounds. The Trautshold method was used without changes to the parameters. U.S. Pat. No. 4,693,993, at Column 14, line 10 gives a general description of data analysis for this assay.
In this table, I=inhibitor, and numbers in parenthesis are pA2. Agonist activity are given as percent BK activity.

[2] = molecular target: T2, bradykinin receptors in Rat Uterus (Rattus norvegicus, UniProt P25023); test: Rat Uterus functional assay; format: cell-based
T2 construct: describes the Rat Uterus assay used to analyze the present compounds; from tissue; host or cells: isolated rat uterus
T2 sequence (P25023 1-396): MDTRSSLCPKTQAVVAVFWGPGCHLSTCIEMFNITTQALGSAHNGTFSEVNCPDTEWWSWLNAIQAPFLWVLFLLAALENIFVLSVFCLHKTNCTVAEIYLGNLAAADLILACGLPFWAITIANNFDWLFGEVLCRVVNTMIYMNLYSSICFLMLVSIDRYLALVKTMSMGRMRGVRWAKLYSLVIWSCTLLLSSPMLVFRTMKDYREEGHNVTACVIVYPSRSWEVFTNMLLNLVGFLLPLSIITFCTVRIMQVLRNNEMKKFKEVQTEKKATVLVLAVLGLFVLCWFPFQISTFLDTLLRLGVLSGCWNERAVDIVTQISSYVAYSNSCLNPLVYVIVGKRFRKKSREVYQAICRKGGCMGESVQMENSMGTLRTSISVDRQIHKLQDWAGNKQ
Text: 4. Rat Uterus functional assay Trautshold, Handbook of Expt. Pharmacol. […] The Trautshold method was used without changes to the parameters. U.S. Pat. No. 4,693,993, at Column 14, line 10 gives a general description of data analysis for this assay. In this table, I=inhibitor, and numbers in parenthesis are pA2. Agonist activity are given as percent BK activity.

[3] = number in parenthesis is pA2, read-out: Ileum, pA2 (I=inhibitor) (converted)
[4] = Ileum, pA2 (I=inhibitor), number in parenthesis is pA2

Compound	Kb [1, 3] [nM]	Kb [2] [nM]	Kb [1, 4] [nM]	Uterus, agonist activity as percent BK activity ([2]; rat uterus) [%]	Uterus, activity in words ([2]; rat uterus, symbol without number)
N=C(N)NCCC[C@@H](N)C(=O)N[C@@H](CCCNC(=N)N)C(=O)N1CCC[C@H]1C(=O)N1C[C@H](O)C[C@H]1C(=O)NCC(=O)N[C@H](C(=O)N[C@@H](CO)C(=O)N[C@H](Cc1c(F)c(F)c(F)c(F)c1F)C(=O)N1[C@H](C(=O)N[C@@H](CCCNC(=N)N)C(=O)O)C[C@@H]2CCCC[C@@H]21)C1Cc2ccccc2C1 [Compound B10044, DArg-Arg-Pro-Hyp-Gly-Igl-Ser-Df5f-Oic-Arg]	3.98	7.94			
N=C(N)NCCC[C@@H](N)C(=O)N[C@@H](CCCNC(=N)N)C(=O)N1CCC[C@H]1C(=O)N1C[C@H](O)C[C@H]1C(=O)NCC(=O)N[C@H](C(=O)N[C@@H](CO)C(=O)N[C@H](Cc1c(F)c(F)c(F)c(F)c1F)C(=O)N[C@H](C(=O)N[C@@H](CCCNC(=N)N)C(=O)O)C1Cc2ccccc2C1)C1Cc2ccccc2C1 [Compound B10056, DArg-Arg-Pro-Hyp-Gly-Igl-Ser-Df5f-Igl-Arg]			10	9.5	
N=C(N)NCCC[C@@H](N)C(=O)N[C@@H](CCCNC(=N)N)C(=O)N1CCC[C@H]1C(=O)N1C[C@H](O)C[C@H]1C(=O)NCC(=O)N[C@H](C(=O)N[C@@H](CO)C(=O)N[C@H](Cc1c(F)c(F)c(F)c(F)c1F)C(=O)N[C@@H](Cc1cccs1)C(=O)N[C@@H](CCCNC(=N)N)C(=O)O)C1Cc2ccccc2C1 [Compound B10058, DArg-Arg-Pro-Hyp-Gly-Igl-Ser-Df5f-Thi-Arg]	12.6	6.31			
N=C(N)NCCC[C@@H](N)C(=O)N[C@@H](CCCNC(=N)N)C(=O)N1CCC[C@H]1C(=O)N1C[C@H](O)C[C@H]1C(=O)NCC(=O)N[C@H](C(=O)N[C@@H](CO)C(=O)N[C@H](Cc1c(F)c(F)c(F)c(F)c1F)C(=O)N(CC(=O)N[C@@H](CCCNC(=N)N)C(=O)O)C1CCCCC1)C1Cc2ccccc2C1 [Compound B10112, DArg-Arg-Pro-Hyp-Gly-Igl-Ser-Df5f-NchG-Arg]			25.1	21	
N=C(N)NCCC[C@H](NC(=O)[C@@H]1C[C@@H]2CCCC[C@@H]2N1C(=O)[C@@H](Cc1c(F)c(F)c(F)c(F)c1F)NC(=O)[C@H](CO)NC(=O)[C@H](Cc1cccs1)NC(=O)CNC(=O)[C@@H]1CCCN1C(=O)[C@@H]1CCCN1C(=O)[C@H](CCCNC(=N)N)NC(=O)[C@@H](CCCNC(=N)N)NC(=O)[C@H](CCCCN)NC(=O)CCCCCCCCCCC(=O)N[C@@H](CCCCN)C(=O)N[C@H](CCCNC(=N)N)C(=O)N[C@@H](CCCNC(=N)N)C(=O)N1CCC[C@H]1C(=O)N1CCC[C@H]1C(=O)NCC(=O)N[C@@H](Cc1cccs1)C(=O)N[C@@H](CO)C(=O)N[C@H](Cc1c(F)c(F)c(F)c(F)c1F)C(=O)N1[C@H](C(=O)N[C@@H](CCCNC(=N)N)C(=O)O)C[C@@H]2CCCC[C@@H]21)C(=O)O [Compound B10118, αDDD-(Lys-DArg-Arg-Pro-Pro-Gly-Thi-Ser-Df5f-Oic-Arg)2]	5.01	7.94			
N=C(N)NCCC[C@H](NC(=O)[C@H](CCCCN)NC(=O)[C@@H](N)CCCCN)C(=O)N1CCC[C@H]1C(=O)N1C[C@H](O)C[C@H]1C(=O)NCC(=O)N[C@H](C(=O)N[C@@H](CO)C(=O)N[C@H](Cc1c(F)c(F)c(F)c(F)c1F)C(=O)N[C@H](C(=O)O)C1CCCCC1)C1Cc2ccccc2C1 [Compound B10146, Lys-Lys-Arg-Pro-Hyp-Gly-Igl-Ser-Df5f-Chg]			1260		Ag
N=C(N)NCCC[C@H](NC(=O)[C@H](CCCCN)NC(=O)[C@@H](N)CCCCN)C(=O)N1CCC[C@H]1C(=O)N1C[C@H](O)C[C@H]1C(=O)NCC(=O)N[C@H](C(=O)N[C@@H](CO)C(=O)N[C@H](Cc1c(F)c(F)c(F)c(F)c1F)C(=O)N1[C@H](C(=O)O)C[C@@H]2CCCC[C@@H]21)C1Cc2ccccc2C1 [Compound B10148, Lys-Lys-Arg-Pro-Hyp-Gly-Igl-Ser-Df5f-Oic]	1000	63.1			
CN(C(=O)[C@H](CCCNC(=N)N)NC(=O)[C@H](N)CCCNC(=N)N)[C@@H](Cc1ccccc1)C(=O)N1C[C@H](O)C[C@H]1C(=O)NCC(=O)N[C@H](C(=O)N[C@@H](CO)C(=O)N[C@H](Cc1c(F)c(F)c(F)c(F)c1F)C(=O)N1[C@H](C(=O)N[C@@H](CCCNC(=N)N)C(=O)O)C[C@@H]2CCCC[C@@H]21)C1Cc2ccccc2C1 [Compound B10150, DArg-Arg-NMF-Hyp-Gly-Igl-Ser-Df5f-Oic-Arg] (H-[dR]R[NMeF][Hyp]G[Igl]S[dPhe(F5)][Oic]R-OH; N-terminus and C-terminus assumed)	12.6	7.94			
N=C(N)NCCC[C@H](NC(=O)[C@@H]1C[C@@H]2CCCC[C@@H]2N1C(=O)[C@@H](Cc1c(F)c(F)c(F)c(F)c1F)NC(=O)[C@H](CO)NC(=O)[C@@H](NC(=O)CNC(=O)[C@@H]1C[C@@H](O)CN1C(=O)[C@@H]1CCCN1C(=O)[C@H](CCCNC(=N)N)NC(=O)[C@@H](CCCNC(=N)N)NC(=O)C12CC3CC(CC(C3)C1)C2)C1Cc2ccccc2C1)C(=O)O [Compound B10154, Aca-DArg-Arg-Pro-Hyp-Gly-Igl-Ser-Df5f-Oic-Arg]	12.6	6.31			
N=C(N)NCCC[C@H](NC(=O)[C@@H]1C[C@@H]2CCCC[C@@H]2N1C(=O)[C@@H](Cc1c(F)c(F)c(F)c(F)c1F)NC(=O)[C@H](CO)NC(=O)[C@@H](NC(=O)CNC(=O)[C@@H]1C[C@@H](O)CN1C(=O)[C@@H]1CCCN1C(=O)[C@H](CCCNC(=N)N)NC(=O)[C@@H](CCCNC(=N)N)NC(=O)CN(CCCNC(=N)N)CCCNC(=N)N)C1Cc2ccccc2C1)C(=O)O [Compound B10156, Gun2-bApg-DArg-Arg-Pro-Hyp-Gly-Igl-Ser-Df5f-Oic-Arg]	12.6	5.01			
N=C(N)NCCC[C@H](NC(=O)[C@@H]1C[C@@H]2CCCC[C@@H]2N1C(=O)[C@@H](Cc1c(F)c(F)c(F)c(F)c1F)NC(=O)[C@H](CO)NC(=O)[C@@H](NC(=O)CNC(=O)[C@@H]1C[C@@H](O)CN1C(=O)[C@@H]1CCCN1C(=O)[C@H](CCCNC(=N)N)NC(=O)[C@@H](CCCNC(=N)N)NC(=O)[C@H](CCCCN)NC(=O)CCCCCCCCCCC(=O)N[C@@H](CCCCN)C(=O)N[C@H](CCCNC(=N)N)C(=O)N[C@@H](CCCNC(=N)N)C(=O)N1CCC[C@H]1C(=O)N1C[C@H](O)C[C@H]1C(=O)NCC(=O)N[C@H](C(=O)N[C@@H](CO)C(=O)N[C@H](Cc1c(F)c(F)c(F)c(F)c1F)C(=O)N1[C@H](C(=O)N[C@@H](CCCNC(=N)N)C(=O)O)C[C@@H]2CCCC[C@@H]21)C1Cc2ccccc2C1)C1Cc2ccccc2C1)C(=O)O [Compound B10158, αDDD-(Lys-Darg-Arg-Pro-Hyp-Gly-Igl-Ser-Df5f-Oic-Arg)2]	10	3.16			
N=C(N)NCCC[C@@H](N)C(=O)N[C@@H](CCCNC(=N)N)C(=O)N1CCC[C@H]1C(=O)N1C[C@H](O)C[C@H]1C(=O)NCC(=O)N[C@@H](Cc1c(F)c(F)c(F)c(F)c1F)C(=O)N[C@@H](CO)C(=O)N[C@@H](C(=O)N1[C@H](C(=O)N[C@@H](CCCNC(=N)N)C(=O)O)C[C@@H]2CCCC[C@@H]21)C1Cc2ccccc2C1 [Compound B10164, DArg-Arg-Pro-Hyp-Gly-f5f-Ser-DIgl-Oic-Arg]	63.1	10			
N=C(N)NCCC[C@@H](N)C(=O)N[C@@H](CCCNC(=N)N)C(=O)N1CCC[C@H]1C(=O)N1C[C@H](O)C[C@H]1C(=O)NCC(=O)N[C@@H](Cc1cccs1)C(=O)N[C@@H](CO)C(=O)N[C@H](Cc1c(F)c(F)c(F)c(F)c1F)C(=O)N[C@@H](Cc1c(F)c(F)c(F)c(F)c1F)C(=O)N[C@@H](CCCNC(=N)N)C(=O)O [Compound B10166, DArg-Arg-Pro-Hyp-Gly-Thi-Ser-Df5f-f5f-Arg]	10	7.94			
N=C(N)NCCC[C@@H](N)C(=O)N[C@@H](CCCNC(=N)N)C(=O)N1CCC[C@H]1C(=O)N1C[C@H](O)C[C@H]1C(=O)NCC(=O)N[C@@H](Cc1c(F)c(F)c(F)c(F)c1F)C(=O)N[C@@H](CO)C(=O)N[C@@H](C(=O)N1[C@H](C(=O)N[C@@H](CCCNC(=N)N)C(=O)O)C[C@@H]2CCCC[C@@H]21)C1Cc2ccccc2C1 [Compound B10210, DArg-Arg-Pro-Hyp-Gly-f5f-Ser-DIgl-Oic-Arg]	15.8				
